In patent publication US10966961B2, “Pyrazole derivatives as bromodomain inhibitors” (GLAXOSMITHKLINE INTELLECTUAL PROPERTY (NO.2) LIMITED, priority 2017, dated 2021):

Tests used:
BRD4 BD2 = biological target: T1, BRD4 BD2 (Homo sapiens, UniProt O60885, Y97A); experiment: BRD4 BD2 TR-FRET competition assay; assay type: binding; details: for IC50: BRD4 BD2 TR-FRET, read-out: pIC50 in the BRD4 BD2 assay (converted)
T1 construct: BRD4 (1-477) (Y97A) and (Y390A); made in house; host or cells: E. coli (pET15b vector)
Protocol: Time Resolved Fluorescence Resonance Energy Transfer (TR-FRET) assay
Bromodomain binding was assessed utilising a time resolved fluorescent resonance energy transfer (TR-FRET) competition assay. To enable this approach a known, high affinity, pan-BET interacting small molecule was labelled with Alexa Fluor® 647, which is a far-red-fluorescent dye (Reference Compound X). Reference Compound X acts as a reporter of bromodomain binding and is the acceptor fluorophore component of the TR-FRET pair. Europium chelate, conjugated to an anti-6*His antibody, was utilised as the donor fluorophore in the TR-FRET pair. […] A TR-FRET signal is generated when the donor and acceptor fluorophores are in close proximity, between 20-80 Å, which is enabled in this assay by binding of Reference Compound X to the bromodomain protein.
Assay Principle: In order to generate a TR-FRET signal, donor fluorophore is excited by a laser at A337 nm, which subsequently leads to emission at λ618 nm. If the acceptor fluorophore is in close proximity then energy transfer can occur, which leads to emission of Alexa Fluor® 647 at λ665 nm. In the presence of competitor compound, Reference Compound X can be displaced from binding to the bromodomain. If displacement occurs, the acceptor fluorophore is no longer in proximity to the donor fluorophore, which prevents fluorescent energy transfer and, subsequently, a loss of Alexa Fluor® 647 emission at λ665 nm.
(§1) The competition of the compounds of formula (I) with Reference Compound X for binding to the BET family (BRD2, BRD3, BRD4 and BRDT) was assessed using protein truncates spanning both bromodomain 1 (BD1) and bromodomain 2 (BD2). In order to monitor differential binding to either BD1 or BD2, single residue mutations of key tyrosines to alanine were made in the acetyl lysine binding pockets. To validate this approach, a double residue mutant tandem domain protein was produced for each of the BET family members. Utilising a Fluorescence Polarisation approach, binding affinities for each of the single and double mutants for Reference Compound X were determined.
Final purification was completed by Superdex 200 prep grade size exclusion column. Purified protein was stored at −80° C. in 20 mM HEPES pH 7.5 and 100 mM NaCl. […] Protocol for Bromodomain BRD2, 3, 4 and T, BD1+BD2 mutant TR-FRET competition assays:
All assay components were dissolved in an assay buffer composing of 50 mM HEPES pH7.4, 50 mM NaCl, 5% Glycerol, 1 mM DTT and 1 mM CHAPS. Reference Compound X was diluted, in assay buffer containing 20 nM single mutant, tandem bromodomain protein, to a concentration equivalent to 2*Kd for this bromodomain. The solution containing bromodomain and Reference Compound X was added to dose response dilutions of test compound or DMSO vehicle (a maximum of 0.5% DMSO is used in this assay) in Greiner 384 well black low volume microtitre plates and subsequently incubated for 30 minutes at rt. An equal volume of 3 nM of anti-6*His Europium chelate was added to all wells, followed by a further 30 minute incubation at rt. TR-FRET was detected using a Perkin Elmer Multimode plate reader, by exciting the donor fluorophore at λ337 nm and subsequently, after a delay of 50 μsecs, measuring emission of the donor and acceptor fluorophores at λ615 nm and λ665 nm, respectively. In order to control these assays, 16 replicates each of uninhibited (DMSO vehicle) and inhibited (10*IC50 concentrations of Example 11 of WO 2011/054846A1) TR-FRET assays were included on every microtitre plate.
cA four parameter curve fit of the following form was then applied: y=a+((b−a)/(1+(10^x/10^c)^d)
Where ‘a’ is the minimum, ‘H’ is the Hill slope, ‘c’ is the pIC50 and ‘d’ is the maximum.
All compounds (Examples) were each tested in the BRD4 BD1 and the BRD4 BD2 TR-FRET assays essentially as described above. Those of skill in the art will recognise that in vitro binding assays and cell-based assays for functional activity are subject to experimental variability.

[1] = tested on: double residue mutant tandem domain BET proteins (BRD2, BRD3, BRD4 and BRDT); experiment: Fluorescence Polarisation binding of Reference Compound X to mutant tandem BET proteins; set-up: species or system Human; details: double mutant vs non mutated tandem BET proteins
Protocol: as §1, with “determined. […] The affinities of the single mutated bromdomain tandem proteins for Reference Compound X were equi-potent with the corresponding non-mutated BET protein. […] In the TR-FRET competition assay, Reference Compound X is used at a concentration that is equivalent to the Kd for the non-mutated bromodomain, which ensures that no binding at the mutated bromodomain is detected. […]” for “determined.”

Row | IC50 (BRD4 BD2) | Structure (SMILES) | further results
1 | 63.1 nM | CNC(=O)c1cc(C(=O)N[C@H]2[C@@H]3COC[C@@H]32)n([C@@H](C)c2ccccc2)n1 [Example 1, N^5-((1R,5S,6r)-3-Oxabicyclo[3.1.0]hexan-6-yl)-N^3-methyl-1-((S)-1-phenylethyl)-1H-pyrazole-3,5-dicarboxamide] | selectivity for BRD4 BD2 over BRD4 BD1 (BRD4 BD2; BRD4 BD2 pIC50 − BRD4 BD1 pIC50, in at least one of the TR-FRET assays): 2.8 log units
2 | 1000 to 10000 nM | CNC(=O)c1cc(C(=O)NC)n(Cc2ccccc2)n1 [Example 94, 1-Benzyl-N^3,N^5-dimethyl-1H-pyrazole-3,5-dicarboxamide] | –
3 | 1000 to 10000 nM | CNC(=O)c1cc(C(=O)NC(C)C)n(Cc2ccccc2)n1 [Example 96, 1-Benzyl-N^5-isopropyl-N^3-methyl-1H-pyrazole-3,5-dicarboxamide] | –
4 | 1000 to 10000 nM | CNC(=O)c1cc(C(=O)NC2CC2)n(Cc2ccc(C#N)cc2)n1 [Example 102, 1-(4-Cyanobenzyl)-N^5-cyclopropyl-N^3-methyl-1H-pyrazole-3,5-dicarboxamide] | –
5 | 1000 to 10000 nM | CNC(=O)c1cc(C(=O)NC2CC2)n(Cc2ccccc2OC)n1 [Example 106, N^5-Cyclopropyl-1-(2-methoxybenzyl)-N^3-methyl-1H-pyrazole-3,5-dicarboxamide] | –
6 | 1000 to 10000 nM | CCNC(=O)c1cc(C(=O)N[C@H]2CC[C@H](O)CC2)n([C@@H](C)c2ccccc2)n1 [Example 108, N^3-Ethyl-N^5-((1r,4S)-4-hydroxycyclohexyl)-1-((S)-1-phenylethyl)-1H-pyrazole-3,5-dicarboxamide] | –
7 | 1000 to 10000 nM | CNC(=O)c1cc(C(=O)N[C@H]2[C@@H]3COC[C@@H]32)n([C@H](C)c2ccccc2)n1 [Example 109, N^5-((1R,5S,6r)-3-Oxabicyclo[3.1.0]hexan-6-yl)-N^3-methyl-1-((R)-1-phenylethyl)-1H-pyrazole-3,5-dicarboxamide] | –
8 | 1000 to 10000 nM | CNC(=O)c1cc(C(=O)NC(C)(C)C)n([C@@H](C)c2ccccc2)n1 [Example 112, (S)-N^5-(tert-Butyl)-N^3-methyl-1-(1-phenylethyl)-1H-pyrazole-3,5-dicarboxamide] | –
9 | 1000 to 10000 nM | CNC(=O)c1cc(C(=O)N[C@H]2[C@@H]3COC[C@@H]32)n([C@H](C)c2cccc3[nH]ccc23)n1 [Example 132, 1-((R)-1-(1H-Indol-4-yl)ethyl)-N^5-((1R,5S,6r)-3-oxabicyclo[3.1.0]hexan-6-yl)-N^3-methyl-1H-pyrazole-3,5-dicarboxamide] | –
10 | 1000 to 10000 nM | CNC(=O)c1cc(C(=O)N[C@H]2C[C@@H]2C)n(C(C)c2ccnc3c2ccn3S(=O)(=O)c2ccc(C)cc2)n1 (stereo partly drawn) [Example 135, N^3-Methyl-N^5-((1S,2S)-2-methylcyclopropyl)-1-(1-(1-tosyl-1H-pyrrolo[2,3-b]pyridin-4-yl)ethyl)-1H-pyrazole-3,5-dicarboxamide] | –
11 | 1000 to 10000 nM | CNC(=O)c1cc(C(=O)N[C@H]2[C@@H]3COC[C@@H]32)n([C@@H](C)c2ccccc2OC)n1 [Example 136, N^5-((1R,5S,6r)-3-Oxabicyclo[3.1.0]hexan-6-yl)-1-((S)-1-(2-methoxyphenyl)ethyl)-N^3-methyl-1H-pyrazole-3,5-dicarboxamide] | –
12 | 1000 to 10000 nM | CNC(=O)c1cc(C(=O)N[C@H]2C[C@@H]2C)n([C@H](C)c2ccnc3[nH]ccc23)n1 [Example 137, 1-((R)-1-(1H-Pyrrolo[2,3-b]pyridin-4-yl)ethyl)-N^3-methyl-N^5-((1S,2S)-2-methylcyclopropyl)-1H-pyrazole-3,5-dicarboxamide] | –
13 | 1000 to 10000 nM | CNC(=O)c1cc(C(=O)N[C@H]2[C@@H]3C[C@@H](O)C[C@@H]32)n([C@H](C)c2ccc(C(F)(F)F)cc2)n1 [Example 229] | –
14 | 1000 to 10000 nM | CNC(=O)c1cc(C(=O)NC2CC2)nn1Cc1ccc2[nH]ccc2c1 [Example 233] | –
15 | 1000 to 10000 nM | CNC(=O)c1cc(C(=O)NC2CC2)nn1Cc1cccc2[nH]ccc12 [Example 234] | –
16 | 1000 to 10000 nM | CNC(=O)c1cc(C(=O)N[C@@H]2C[C@@H](C)[C@H](O)[C@@H](C)C2)n([C@@H](C)c2ccccc2)n1 [Example 236] | –
17 | 1000 to 10000 nM | CNC(=O)c1cc(C(=O)N[C@H]2[C@@H]3COC[C@@H]32)n([C@H](C)c2ccc(Cl)c(F)c2)n1 [Example 237] | –
18 | 1000 to 10000 nM | CNC(=O)c1cc(C(=O)N[C@H]2[C@@H]3C[C@H](O)C[C@@H]32)n([C@H](C)c2cccc(C(F)(F)F)c2)n1 [Example 238] | –
19 | 1000 to 10000 nM | CNC(=O)c1cc(C(=O)Nc2onc(C)c2C#N)n([C@@H](C)c2ccccc2)n1 [Example 239] | –
20 | 1000 to 10000 nM | CNC(=O)c1cc(C(=O)Nc2nnc(C(F)(F)F)s2)n([C@@H](C)c2ccccc2)n1 [Example 240] | –
21 | 1000 to 10000 nM | CNC(=O)c1cc(C(=O)NC2[C@H]3C[C@H](O)C[C@@H]23)n([C@H](C)c2cccc(C(F)(F)F)c2)n1 (stereo partly drawn) [Example 241] | –
22 | 1000 to 10000 nM | CNC(=O)c1cc(C(=O)Nc2c(C)noc2C)n([C@@H](C)c2ccccc2)n1 [Example 248] | –
23 | – | COc1ccc2c(c1)C(c1ccc(Cl)cc1)=N[C@@H](CC(=O)NCCCCCNC(=O)CCCCCC1(C)/C(=C/C=C/C=C/C3=[N+](CCCCS(=O)(=O)O)c4ccc(S(=O)(=O)O)cc4C3(C)C)N(CCCCS(=O)(=O)[O-])c3ccc(S(=O)(=O)O)cc31)c1nnc(C)n1-2 (stereo partly drawn) [Reference Compound X] | reduction in Kd (affinity) of double mutant tandem proteins versus wild type tandem BET proteins [1]: > 1000 fold
